“And” between values parts separate entries of the source, which are not always exact repeats. Identical values can stand only once. Toxic doses and inconclusive results are not listed.
Test system: P388 leukemia ip, CD2F1 mice, survival T/C
Assay: NCI In Vivo Anticancer Drug Screen. Data for tumor model P388 Leukemia (intraperitoneal) in CD2F1 (CDF1) mice
Conditions: endpoint: median survival time, higher = longer survival
In short: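 Mice carrying the transplanted tumor received test compound or vehicle. Survival was recorded in each group, and the value is the treated-group measurement divided by that of the vehicle-treated control group.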

[1] = dose: 50.0 mg/kg/injection, schedule: Q01DX005 (ip), vehicle: Klucel (hydroxypropylcellulose) (HPC)
[2] = dose: 100.0 mg/kg/injection, schedule: Q01DX005 (ip), vehicle: Klucel (hydroxypropylcellulose) (HPC)
[3] = dose: 200.0 mg/kg/injection, schedule: Q01DX005 (ip), vehicle: Klucel (hydroxypropylcellulose) (HPC)
[4] = dose: 25.0 mg/kg/injection, schedule: Q01DX005 (ip), vehicle: saline with Tween-80
[5] = dose: 50.0 mg/kg/injection, schedule: Q01DX005 (ip), vehicle: saline with Tween-80
[6] = dose: 100.0 mg/kg/injection, schedule: Q01DX005 (ip), vehicle: saline with Tween-80
[7] = dose: 50.0 mg/kg/injection, schedule: Q01DX009 (ip), vehicle: Klucel (hydroxypropylcellulose) (HPC)
[8] = dose: 100.0 mg/kg/injection, schedule: Q01DX009 (ip), vehicle: Klucel (hydroxypropylcellulose) (HPC)
[9] = dose: 200.0 mg/kg/injection, schedule: Q01DX009 (ip), vehicle: Klucel (hydroxypropylcellulose) (HPC)
[10] = dose: 60.0 mg/kg/injection, schedule: Q01DX005 (ip), vehicle: saline with Tween-80
[11] = dose: 120.0 mg/kg/injection, schedule: Q01DX005 (ip), vehicle: saline with Tween-80
[12] = dose: 240.0 mg/kg/injection, schedule: Q01DX005 (ip), vehicle: saline with Tween-80

With `CP(=O)(OCCOCCOP(C)(=O)c1ccccc1)c1ccccc1` (stereo unspecified) the T/C [1] was 98 % of control, the T/C [2] was 103 % of control and the T/C [3] was 101 % of control.
With `CC(C)(C)OC(=O)NC(CCCCNC(=O)OCc1ccccc1)C(=O)O` (stereo unspecified) the T/C (dose: 50.0 mg/kg/injection, schedule: Q01DX005 (ip), vehicle: distilled water + Tween-80 + alcohol) was 92 % of control, the T/C (dose: 50.0 mg/kg/injection, schedule: Q01DX005 (ip), vehicle: saline) was 106 % of control and the T/C (dose: 100.0 mg/kg/injection, schedule: Q01DX005 (ip), vehicle: distilled water + Tween-80 + alcohol) was 92 % of control. For the same compound, the T/C (dose: 100.0 mg/kg/injection, schedule: Q01DX005 (ip), vehicle: saline) was 100 % of control and the T/C (dose: 200.0 mg/kg/injection, schedule: Q01DX005 (ip), vehicle: saline) was 103 % of control.
For `COc1cccc2c1OC1(N3CCOCC3)CCCCC1C2C[N+](=O)[O-]` (stereo unspecified), the T/C (dose: 50.0 mg/kg/injection, schedule: Q01DX009 (ip), vehicle: saline with Tween-80) was 90 % of control, the T/C (dose: 100.0 mg/kg/injection, schedule: Q01DX009 (ip), vehicle: saline with Tween-80) was 93 % of control and the T/C (dose: 200.0 mg/kg/injection, schedule: Q01DX009 (ip), vehicle: saline with Tween-80) was 89 % of control.
In the case of `CC1(CCC(=O)c2cc3c(cc2Br)OCO3)OCCO1`, the T/C [4] is reported as 99 % of control, the T/C [5] is reported as 99 % of control and the T/C [6] is reported as 100 % of control.
For `COC(=N)c1nnn(-c2ccccc2)n1`, the T/C (dose: 100.0 mg/kg/injection, schedule: Q04DX003 (ip), vehicle: Klucel (hydroxypropylcellulose) (HPC)) was 97 % of control, the T/C (dose: 200.0 mg/kg/injection, schedule: Q04DX003 (ip), vehicle: Klucel (hydroxypropylcellulose) (HPC)) was 97 % of control and the T/C (dose: 400.0 mg/kg/injection, schedule: Q04DX003 (ip), vehicle: Klucel (hydroxypropylcellulose) (HPC)) was 95 % of control.
For `CCOC(=O)/C(=C(/C)OC(C)=O)c1ccc([N+](=O)[O-])cc1[N+](=O)[O-]`, the T/C (dose: 50.0 mg/kg/injection, schedule: Q01DX009 (ip), vehicle: saline) was 89 % of control, the T/C (dose: 100.0 mg/kg/injection, schedule: Q01DX009 (ip), vehicle: saline) was 94 % of control and the T/C (dose: 200.0 mg/kg/injection, schedule: Q01DX009 (ip), vehicle: saline) was 93 % of control.
`CC(=O)OC1CCC2(C)C(CCC3C2CCC2(C)C3CC(CC(=O)O)C2OC(C)=O)C1` (stereo unspecified) was tested, and the T/C (dose: 25.0 mg/kg/injection, schedule: Q01DX009 (ip), vehicle: Klucel (hydroxypropylcellulose) (HPC)) was 92 % of control, the T/C [7] was 92 % of control and the T/C [8] was 93 % of control. The T/C [9] was 97 % of control.
In the case of `Cc1cccc(C)c1NC(=O)C(=O)C(C#N)c1c(Cl)cccc1Cl` (stereo unspecified), the T/C [10] is reported as 102 % of control, the T/C [11] is reported as 102 % of control and the T/C [12] is reported as 104 % of control.
For `CCCN1C(=O)C2C3C=CC(C2C1=O)C1C2C(=O)N(CCC)C(=O)C2C31` (stereo unspecified), the T/C (dose: 100.0 mg/kg/injection, schedule: Q01DX001 (ip), vehicle: saline with Tween-80) was 92 % of control, the T/C (dose: 200.0 mg/kg/injection, schedule: Q01DX001 (ip), vehicle: saline with Tween-80) was 96 % of control and the T/C (dose: 400.0 mg/kg/injection, schedule: Q01DX001 (ip), vehicle: saline with Tween-80) was 101 % of control.
`Cn1c(=O)c2c(nc3n2CC(CF)O3)n(C)c1=O` (stereo unspecified) was tested, and the T/C [7] was 104 % of control, the T/C [8] was 104 % of control and the T/C [9] was 99 % of control.
For `CC(=O)N(C)C`, the T/C (dose: 0.25 % in 0.5 ml injection vol, schedule: Q01DX009 (ip), vehicle: water) was 102 % of control, the T/C (dose: 0.5 % in 0.5 ml injection vol, schedule: Q01DX009 (ip), vehicle: water) was 100 % of control and 102 % of control and the T/C (dose: 1.0 % in 0.5 ml injection vol, schedule: Q01DX009 (ip), vehicle: water) was 99 % of control and 102 % of control. The T/C (dose: 2.0 % in 0.5 ml injection vol, schedule: Q01DX009 (ip), vehicle: water) was 100 % of control and 101 % of control, the T/C (dose: 8.0 % in 0.5 ml injection vol, schedule: Q01DX009 (ip), vehicle: water) was 112 % of control and 113 % of control and the T/C (dose: 16.0 % in 0.5 ml injection vol, schedule: Q01DX009 (ip), vehicle: water) was 108 % of control.
`C/C(=C/c1nc2ccccc2[nH]1)c1ccccc1` was tested, and the T/C [4] was 100 % of control, the T/C [5] was 100 % of control and 107 % of control and the T/C [6] was 121 % of control and 96 % of control. For the same compound, the T/C (dose: 200.0 mg/kg/injection, schedule: Q01DX005 (ip), vehicle: saline with Tween-80) was 95 % of control and 96 % of control.
In the case of `NC(=O)N/N=C1\C(=O)N(c2ccc(S(N)(=O)=O)cc2)C(=O)C1C(=O)Nc1ccc(S(N)(=O)=O)cc1` (stereo unspecified), the T/C (dose: 60.0 mg/kg/injection, schedule: Q01DX005 (ip), vehicle: saline) is reported as 106 % of control, the T/C (dose: 120.0 mg/kg/injection, schedule: Q01DX005 (ip), vehicle: saline) is reported as 102 % of control and the T/C (dose: 240.0 mg/kg/injection, schedule: Q01DX005 (ip), vehicle: saline) is reported as 102 % of control.
For `O=[N+]([O-])c1nccn1CCCl`, the T/C (dose: 12.5 mg/kg/injection, schedule: Q01DX009 (ip), vehicle: distilled water + Tween-80) was 95 % of control, the T/C (dose: 25.0 mg/kg/injection, schedule: Q01DX009 (ip), vehicle: distilled water + Tween-80) was 113 % of control and the T/C (dose: 50.0 mg/kg/injection, schedule: Q01DX009 (ip), vehicle: distilled water + Tween-80) was 100 % of control.
With `CCOc1cc2c(cc1Cc1c(OC)cc(OC)cc1OC)OCO2` the T/C [10] was 90 % of control and the T/C [12] was 99 % of control.
For `CCCCCC(=O)C(=O)c1ccc(O)c(C)c1O`, the T/C [7] was 95 % of control and the T/C [8] was 89 % of control.
In the case of `CCOC(=N)c1cn(C2OC(CO)C(O)C2O)c2ncnc(N)c12` (stereo unspecified), the T/C (dose: 0.2 mg/kg/injection, schedule: Q01DX009 (ip), vehicle: saline) is reported as 161 % of control, the T/C (dose: 0.25 mg/kg/injection, schedule: Q01DX009 (ip), vehicle: saline) is reported as 150 % of control and the T/C (dose: 0.3 mg/kg/injection, schedule: Q01DX009 (ip), vehicle: saline) is reported as 157 % of control. The T/C (dose: 0.5 mg/kg/injection, schedule: Q01DX009 (ip), vehicle: saline) was 159 % of control, the T/C (dose: 1.0 mg/kg/injection, schedule: Q01DX009 (ip), vehicle: saline) was 118 % of control and the T/C (dose: 2.0 mg/kg/injection, schedule: Q01DX009 (ip), vehicle: saline) was 90 % of control.
In the case of `COC1CC(N=S(=O)(O)c2ccc(N)cc2)[N-]C(OC)N1.[Ag+]` (stereo unspecified), the T/C [7] is reported as 97 % of control, the T/C [8] is reported as 93 % of control and the T/C [9] is reported as 102 % of control.
In the case of `C=CCOc1cc2c(cc1C(C)(C)c1ccc(OC)cc1)OCO2`, the T/C [10] is reported as 118 % of control and the T/C [11] is reported as 117 % of control.
In the case of `CN(C)c1cccc(NC(=O)CC#N)c1`, the T/C [5] is reported as 93 % of control and the T/C [6] is reported as 93 % of control.
With `COc1ccc(Br)cc1C1SCC(=O)N1c1nncs1` (stereo unspecified) the T/C (dose: 60.0 mg/kg/injection, schedule: Q01DX005 (ip), vehicle: Klucel (hydroxypropylcellulose) (HPC)) was 101 % of control, the T/C (dose: 120.0 mg/kg/injection, schedule: Q01DX005 (ip), vehicle: Klucel (hydroxypropylcellulose) (HPC)) was 101 % of control and the T/C (dose: 240.0 mg/kg/injection, schedule: Q01DX005 (ip), vehicle: Klucel (hydroxypropylcellulose) (HPC)) was 93 % of control.
In the case of `CCOC(=O)c1c(O)c(C)c(=O)n2c1[nH]c1cc(C)c(C)cc12`, the T/C [10] is reported as 93 % of control and the T/C [11] is reported as 98 % of control.
`Cc1cc(=O)c(C#N)c(C)s1` was tested, and the T/C (dose: 100.0 mg/kg/injection, schedule: Q04DX002 (ip), vehicle: saline with Tween-80) was 107 % of control, the T/C (dose: 200.0 mg/kg/injection, schedule: Q04DX002 (ip), vehicle: saline with Tween-80) was 100 % of control and the T/C (dose: 400.0 mg/kg/injection, schedule: Q04DX002 (ip), vehicle: saline with Tween-80) was 110 % of control.
In the case of `CC[C@@]1(O)C[C@H](OC2CC(N(C)C)C(O)C(C)O2)c2c(cc3c(c2O)C(=O)c2c(O)ccc(O)c2C3=O)[C@H]1C(=O)OC` (stereo partly specified), the T/C (dose: 1.56 mg/kg/injection, schedule: Q01DX009 (ip), vehicle: other) is reported as 110 % of control, the T/C (dose: 3.13 mg/kg/injection, schedule: Q01DX009 (ip), vehicle: other) is reported as 123 % of control and the T/C (dose: 6.25 mg/kg/injection, schedule: Q01DX009 (ip), vehicle: other) is reported as 118 % of control.
For `C=CC(=O)NC(O)C(Cl)(Cl)Cl` (stereo unspecified), the T/C [1] was 98 % of control, the T/C [2] was 98 % of control and the T/C [3] was 102 % of control.
`CCCCCCCCCCCC1N=C(N)N=C(N)N1c1cccc(Br)c1` (stereo unspecified) was tested, and the T/C (dose: 12.5 mg/kg/injection, schedule: Q01DX005 (ip), vehicle: saline with Tween-80) was 100 % of control, the T/C [4] was 112 % of control and the T/C [5] was 97 % of control.
With `CC(=O)Oc1cc2c(cc1OC(C)=O)OCC(c1ccc(C)cc1)C2` (stereo unspecified) the T/C [10] was 105 % of control, the T/C [11] was 108 % of control and the T/C [12] was 107 % of control.

From PubChem BioAssay AID330 (DTP/NCI, 2004)
